Assay results: paper PMC11785708, “Design and synthesis of new quinazolinone derivatives: investigation of antimicrobial and biofilm inhibition effects” (Molecular Diversity, 2024)
Converted amounts (≈) assume the structure as drawn.

How the values were obtained:
K. pneumoniae ATCC 13883 [1] = test: MIC determination, K. pneumoniae; assay type: cell-based, Klebsiella pneumoniae; conditions: Klebsiella pneumoniae, ATCC13883; serial dilutions, triplicate
Experimental: (§1) Serial dilutions of the test compounds were tested to determine their MIC against the most susceptible organisms. The MIC was expressed as the lowest concentration which inhibited the visible growth of the corresponding microorganism. All assays were performed in triplicate.

K. pneumoniae ATCC 13883 [2] = test: Agar well diffusion, K. pneumoniae; assay type: cell-based; conditions: Klebsiella pneumoniae, ATCC13883; 100 μl of test compound 20 mg/ml in DMF; ciprofloxacin and fluconazole 30 μg/ml; 24 h; mean ± SD; read-out: diameters of inhibition zone, K. pneumoniae ATCC 13883
Experimental: (§2) The antimicrobial activity was tested against Gram positive bacteria: Bacillus cereus (B. cereus ATCC 6629), Bacillus subtilis (B. subtilis ATCC 6633), Staphylococcus aureus (S. aureus ATCC 6538), Gram negative bacteria: Klebsiella pneumoniae (K. pneumoniae ATCC 13883), Pseudomonas aeruginosa (P. aeruginosa ATCC 27953) and Candida albicans (C. albicans ATCC 10231). Glycerol stocks were thawed upon need and propagated into nutrient broth at 37 °C. The antibacterial activity of the compounds 9-32 was carried out in vitro using the agar well diffusion method, originally reported by […] and Bauer and coworkers and described by the National Committee for Clinical Laboratory Standards (NCCLS). Bacterial strains, adjusted at […] (equivalent to 0.5 McFarland), were used to inoculate nutrient agar plates. 9-mm diameter wells were punched into the solidified nutrient agar plates using sterile cork borer and 100 μl samples of the test compounds, dissolved in dimethyl formamide (DMF) at 20 mg/ml concentrations, were added and allowed to diffuse at 4 °C for 2 h. Subsequently, the plates were incubated overnight in an upright position at 37 °C. DMF was used as a negative control while ciprofloxacin and fluconazole (30 μg/ml) served as positive controls. After 24 h incubation, the diameters of the growth inhibition zones were recorded in mm. Data was expressed as mean ± standard deviation of three replicates.

B. subtilis ATCC 6633 [3] = test: MIC determination, B. subtilis; assay type: cell-based, Bacillus subtilis; conditions: Bacillus subtilis, ATCC6633; serial dilutions, triplicate
Experimental: as §1

Cell viability MTT assay = assay type: cell-based; conditions: human, BJ1 cells (normal skin fibroblasts)
Experimental: Cell viability testing at 5 mg/ml was carried out by colorimetric MTT assay on human normal cell line BJ1 (skin fibroblasts) to investigate the toxicity of the most broad spectrum derivatives 9, 15, 16, 18, 19, 20 and 29 (Table 3). The viability of the cells treated with the aforementioned derivatives was more than 87% at 5 mg/ml concentration. This gives indication that the compounds are tolerated and nontoxic for human cells, as the cytotoxic dose was higher than the therapeutic dose on most of microorganisms. It is worth mentioning that the safe limit of the percent of dead cells is not an absolute value and could be more than 10% as reported in previous studies.
The most broad spectrum compounds were evaluated for their cytotoxic activity against BJ1 cell line using colorimetric MTT [3-(4,5-dimethylthiazol-2-yl)-2,5-diphenyltetrazolium bromide] assay.

B. cereus ATCC 6629 [4] = test: Agar well diffusion, B. cereus; assay type: cell-based; conditions: Bacillus cereus, ATCC6629; 100 μl of test compound 20 mg/ml in DMF; ciprofloxacin and fluconazole 30 μg/ml; 24 h; mean ± SD; read-out: diameters of inhibition zone, B. cereus ATCC 6629
Experimental: as §2

B. cereus ATCC 6629 [5] = test: MIC determination, B. cereus; assay type: cell-based, Bacillus cereus; conditions: serial dilutions, triplicate
Experimental: as §1

P. aeruginosa ATCC 27953 [6] = test: Agar well diffusion, P. aeruginosa; assay type: cell-based; conditions: Pseudomonas aeruginosa, ATCC27953; 100 μl of test compound 20 mg/ml in DMF; ciprofloxacin and fluconazole 30 μg/ml; 24 h; mean ± SD; read-out: diameters of inhibition zone, P. aeruginosa ATCC 27953
Experimental: as §2

P. aeruginosa ATCC 27953 [7] = test: MIC determination, P. aeruginosa; assay type: cell-based, Pseudomonas aeruginosa; conditions: serial dilutions, triplicate
Experimental: as §1

B. subtilis ATCC 6633 [8] = test: Agar well diffusion, B. subtilis; assay type: cell-based; conditions: Bacillus subtilis, ATCC6633; 100 μl of test compound 20 mg/ml in DMF; ciprofloxacin and fluconazole 30 μg/ml; 24 h; mean ± SD; read-out: diameters of inhibition zone, B. subtilis ATCC 6633
Experimental: as §2

C. albicans ATCC 10231 = test: Agar well diffusion, C. albicans; assay type: cell-based; conditions: Candida albicans, ATCC10231; 100 μl of test compound 20 mg/ml in DMF; ciprofloxacin and fluconazole 30 μg/ml; 24 h; mean ± SD; read-out: diameters of inhibition zone, C. albicans ATCC 10231
Experimental: as §2

Row | Structure (SMILES) | zone of inhibition at 20000 µg/mL (K. pneumoniae ATCC 13883 [2]) | melting point | zone of inhibition at 20000 µg/mL (P. aeruginosa ATCC 27953 [6]) | zone of inhibition at 20000 µg/mL (B. subtilis ATCC 6633 [8]) | zone of inhibition at 20000 µg/mL (C. albicans ATCC 10231) | also measured
1 | CCN(CC)Cc1nc2ccccc2c(=O)n1N=Cc1ccccc1 [Compound 9, 3-(Benzylideneamino)-2-[(diethylamino)methyl]quinazolin-4(3H)-one] | 12 ± 0.17 mm | 78 °C | 21 ± 0.36 mm | 15 ± 0.25 mm | – | MIC (K. pneumoniae ATCC 13883 [1]): 1500 ± 60 µg/mL (≈ 4.49 mM); MIC (B. subtilis ATCC 6633 [3]): 2000 µg/mL (≈ 5.98 mM); viability at 5 mg/ml (Cell viability MTT assay): 91.5 ± 2.21%; zone of inhibition at 20000 µg/mL (B. cereus ATCC 6629 [4]): 14 ± 0.09 mm; MIC (B. cereus ATCC 6629 [5]; Bacillus cereus, ATCC6629): 1000 µg/mL (≈ 2.99 mM); MIC, B. cereus ATCC 6629 (B. cereus ATCC 6629 [5]): 1000 ± 0 µg/mL (≈ 2.99 mM); MIC (P. aeruginosa ATCC 27953 [7]; Pseudomonas aeruginosa, ATCC27953): 2000 µg/mL (≈ 5.98 mM); MIC, P. aeruginosa ATCC 27953 (P. aeruginosa ATCC 27953 [7]): 2000 ± 290 µg/mL (≈ 5.98 mM)
2 | CCN(CC)Cc1nc2ccccc2c(=O)n1N=Cc1ccc(Cl)cc1 [Compound 10, 3-[(4-Chlorobenzylidene)amino]-2-[(diethylamino)methyl]quinazolin-4(3H)-one] | 15 ± 0.15 mm | 124 °C | – | – | – | –
3 | CCN(CC)Cc1nc2ccccc2c(=O)n1N=Cc1ccc(C)cc1 [Compound 11, 2-[(Diethylamino)methyl]-3-[(4-methylbenzylidene)amino]quinazolin-4(3H)-one] | – | 74 °C | – | 14 ± 0.16 mm | – | –
4 | CCN(CC)Cc1nc2ccccc2c(=O)n1N=Cc1ccc(OC)cc1 [Compound 12, 2-[(Diethylamino)methyl]-3-[(4-methoxybenzylidene)amino]quinazolin-4(3H)-one] | – | 102 to 104 °C | 18 ± 0.27 mm | – | – | –
5 | CCN(CC)Cc1nc2ccccc2c(=O)n1N=Cc1cc(OC)c(OC)c(OC)c1 [Compound 13, 2-[(Diethylamino)methyl]-3-[(3,4,5-trimethoxybenzylidene)amino]quinazolin-4(3H)-one] | 12 ± 0.07 mm | 116 °C | 20 ± 0.18 mm | – | 12 ± 0.28 mm | –
6 | CCN(CC)Cc1nc2ccccc2c(=O)n1N=Cc1ccc([N+](=O)[O-])cc1 [Compound 14, 2-[(Diethylamino)methyl]-3-[(4-nitrobenzylidene)amino]quinazolin-4(3H)-one] | – | 155 °C | – | – | 12 ± 0.37 mm | –
7 | Cc1ccc(C=Nn2c(CN3CCCC3)nc3ccccc3c2=O)cc1 [Compound 17, 3-[(4-Methylbenzylidene)amino]-2-(pyrrolidin-1-ylmethyl)quinazolin-4(3H)-one] | – | 156 °C | 16 ± 0.22 mm | – | – | –
8 | O=c1c2ccccc2nc(CN2CCCCC2)n1N=Cc1ccccc1 [Compound 21, 3-(Benzylideneamino)-2-(piperidin-1-ylmethyl)quinazolin-4(3H)-one] | 12 ± 0.15 mm | 98 °C | – | 17 ± 0.14 mm | – | zone of inhibition at 20000 µg/mL (B. cereus ATCC 6629 [4]): 12 ± 0.16 mm
9 | O=c1c2ccccc2nc(CN2CCCCC2)n1N=Cc1ccc(Cl)cc1 [Compound 22, 3-[(4-Chlorobenzylidene)amino]-2-(piperidin-1-ylmethyl)quinazolin-4(3H)-one] | – | 130 °C | – | 10 ± 0.07 mm | – | –
10 | Cc1ccc(C=Nn2c(CN3CCCCC3)nc3ccccc3c2=O)cc1 [Compound 23, 3-[(4-Methylbenzylidene)amino]-2-(piperidin-1-ylmethyl)quinazolin-4(3H)-one] | – | 124 °C | – | – | 11 ± 0.13 mm | –
